Assay: Stability in water at room temperature, LC-MS/MS peak areas over 16 h
Type: physicochemical
Conditions: 5 μg/mL, 0-16 h
Description: The stability of native Piperacillin as well as its hydrolyzed forms was investigated (compounds 5, 9a, 9b and 10, respectively. From the hydrolysis pathway of Piperacillin (compound 5, see schematic drawing in FIG. 1) it is obvious that this compound hydrolyzed both on the piperazin ring and the lactam moiety, only one of both compounds is monitored to account for the loss or degradation of native Piperacillin (compound 5)). To this end, these compounds were freshly weighed and dissolved in water at a concentration of 1 mg/mL by rolling or stirring for 15 minutes at room temperature. Subsequently, these compounds were diluted to 5 μg/mL and measured with a suitable LC-MS/MS method at timepoints 0, 2, 4, 6, 8 and 16 h. For this, a Sunshell C18 (2.6 μm, 2.1 mm×50 mm) column with Solvent A: water with 0.1% HCOOH and Solvent B: CH3CN with 0.1% HCOOH and a flow of 0.6 mL per minute were used on an Agilent Infinity II multisampler/Pump system connected to an AB Sciex 6500+MS. The peaks were integrated using MultiQuant software and the areas of these peaks depicted in the graphs in FIGS. 2A and 2B.
The stability of double butylamide variants of Piperacillin (compound 7, see FIG. 4) was investigated at 2 MRMs using the identical protocol as in Examples 1.

course of obtained peak-areas over time: decreasing
Structure (SMILES): CCN1CCN(C(=O)N[C@@H](C(=O)N[C@@H]2C(=O)N3[C@@H]2SC(C)(C)[C@@H]3C(=O)O)c2ccccc2)C(=O)C1=O [Piperacillin]

— patent US12704504B2, “Derivatization of beta-lactam antibiotics as calibrators/ISTD in massspec measurements” (Roche Diagnostics Operations, Inc., priority 2019, dated 2026)
